{
  "source": "patent US11497713B2",
  "about": "“Combination taxoid nanoemulsion with immunotherapy in cancer” (TargaGenix, Inc., priority 2017, dated 2022)",
  "key": {"[1]": {"tested_on": "CSCs purified from three human colon cancer cell lines, DLD-1, HTC-116, and HT-29", "conditions": "cited from earlier work"}, "[2]": {"tested_on": "human CFPAC-1 pancreatic tumor xenograft", "experiment": "Human CFPAC-1 pancreatic tumor xenograft efficacy (FIG. 2)", "assay_type": "in vivo, mice", "conditions": "240 mg/kg or 300 mg/kg total dose"}, "[3]": {"tested_on": "patient-derived PPT2 prostate cancer stem cell xenograft", "experiment": "Patient-derived prostate cancer stem cell (PPT2) xenograft model", "assay_type": "in vivo, mice", "conditions": "patient-derived prostate CSC xenograft"}, "[4]": {"experiment": "Formulation concentration, droplet properties and storage stability", "text": "The droplet size is consistently less than 200 nm in diameter allowing one to filter sterilize the final formulation. The zeta potential of the nanoemulsion is in the range of negative 23 mV to 33 m."}, "[5]": {"tested_on": "colon and prostate cancer cell lines grown as spheroids", "experiment": "Spheroid assay with CD133high/CD44high colon and prostate cancer cells", "assay_type": "cell-based", "conditions": "cells selected for CD133high/CD44high", "excerpt": "The results from experiments using DHA-SBT-1214 in two human pancreatic tumor models (FIGS. 2 and 3) and a proof-of-concept in patient-derived CSC model are described below. The compelling aspects of DHA-SBT-1214 preclinical activity is its effects on CSCs. Highly plastic CSCs are an important new drug target in the treatment of refractory tumors. Through the development of drugs specifically targeting CSCs (or targeting CSCs in addition to tumor cells) a more durable clinical response may be possible. In addition to the previously described cytotoxicity assays in cell cultures, DHA-SBT-1214 was tested in colon and prostate cancer cell lines grown as spheroids from cells selected for being CD133^high/CD44^high, characteristic of stem cells. […] Perhaps more significant was the effect of exposure to relatively low concentrations of DHA-SBT-1214 (100 nM to 1 μM) for 24 hours on the expression of genes associated with “sternness” in several colon and prostate cancer cells lines grown as microspheres (6,7)."}, "[6]": {"tested_on": "prostate CD133+ cells", "experiment": "Prostate cancer stem cells under stemness-promoting culture conditions", "assay_type": "cell-based", "procedure": "In studies with DHA-SBT-1214 and prostate cancer stem cells, Applicants previously determined that low concentrations of DHA-SBT-1214 (0.1-1 μM) induced up to 80-90% death of the highly tumorigenic and highly drug-resistant prostate CD133^+ cells maintained under stemness-promoting culture conditions."}, "[7]": {"tested_on": "drug-resistant cell lines expressing MDR phenotypes", "conditions": "cited from earlier work"}, "[8]": {"tested_on": "highly drug resistant tumor xenografts", "experiment": "Highly drug resistant tumor xenografts in mice", "conditions": "mouse, in vivo"}, "[9]": {"tested_on": "PDAC", "conditions": "cited from earlier work"}, "[10]": {"tested_on": "PD-L1, PD-1, CD4, CD8 and Arginase-1 expression in tumor tissues", "experiment": "RT-PCR and western blotting of Panc02 tumor tissues", "assay_type": "in vivo, mouse", "conditions": "anti-PD-L1 combination versus IgG treated group", "procedure": "Cells and tumor tissues were washed twice with phosphate-buffered saline (PBS) and lysed in ice-cold lysis buffer containing 2% proteinase inhibitor (both from Sigma-Aldrich Co., St. Louis, Mo., USA). Cells were retrieved with a cell scraper, stirred and incubated on ice for 15 minutes. Mice tumor tissues were sonicated for 10 seconds on ice with sonicator. Lysates were centrifuged, supernatants were collected, and protein concentration was determined using the Bio-Rad protein assay (Bio-Rad Laboratories, Hercules, Calif., USA). The supernatants were diluted with lysis buffer to create equal concentrations of protein. […] Immunocomplexes were detected using western blotting (ECL Prime; GE Healthcare UK Ltd., Buckinghamshire, UK).\nThe expression level of PD-L1 and mRNA for other proteins was determined using real-time PCR as previously described. […] Relative quantifications of gene expression with qRT-PCR data were calculated relative to murine β-actin.\nTo investigate how the anticancer agents, induce PD-L1, PD-1, CD4, CD8 and Arginase-1 mRNA expression in pancreatic cancer tumor tissues, the mRNA level of PD-L1, PD-1, CD4, CD8, and Arginase-1 either alone or in combination of immune checkpoint inhibitor was determined by RT-PCR. […]"}},
  "note": "Entries after “also recorded” stand apart in the source; their conditions may differ. Read-outs that look alike come from different tables or passages of the source.",
  "data": [
    {"compound": "CC/C=C\\C/C=C\\C/C=C\\C/C=C\\C/C=C\\C/C=C\\CCC(=O)O[C@@H](C(=O)O[C@H]1C[C@@]2(O)[C@@H](OC(=O)c3ccccc3)[C@@H]3[C@]4(OC(C)=O)CO[C@@H]4C[C@H](O)[C@@]3(C)C(=O)[C@H](OC(=O)C3CC3)C(=C1C)C2(C)C)[C@H](C=C(C)C)NC(=O)OC(C)(C)C", "note": "[DHA-SBT-1214, Docosahexaenoic acid conjugate of SBT-1214]", "values": [
      {"measurement": "expression of stem related genes", "setting": "[1]", "result": "down-regulate stem related genes"},
      {"measurement": "weight loss", "setting": "[2]", "result": "negligible"},
      {"measurement": "efficacy (tumor growth, survival)", "setting": "[3]", "result": "effective; also recorded: superior to ABRAXANE® and resulted in tumor clearance"},
      {"measurement": "increase in drug concentration in omega-3 fatty acid based nanoemulsion by DHA conjugation", "setting": "[4]", "result": 5, "unit": "fold"},
      {"measurement": "stability", "setting": "[4]; in Solutol-HS15", "result": "less than 24 hours"},
      {"measurement": "formulated drug concentration", "setting": "[4]; in Tween 80 or Solutol-HS15", "result": 6, "unit": "mg/mL"},
      {"measurement": "number of spheroids", "setting": "[5]", "result": "greatly reduced"},
      {"measurement": "cell death", "setting": "[6]; 0.1-1 μM", "result": "80-90%"},
      {"measurement": "expression of pro-apoptotic proteins p53 and p21", "setting": "[6]; previously absent expression", "result": "significant up-regulation"},
      {"measurement": "potency higher than those of paclitaxel and docetaxel", "setting": "[7]", "result": "two-to-three"},
      {"measurement": "efficacy", "setting": "[8]", "result": "remarkable efficacy"}
    ]},
    {"compound": "Nc1ccn([C@@H]2O[C@H](CO)[C@@H](O)C2(F)F)c(=O)n1", "note": "[gemcitabine]", "values": [
      {"measurement": "median overall survival", "setting": "[9]; MPACT Phase III clinical trial", "result": 6.6, "unit": "months"},
      {"measurement": "median overall survival", "setting": "[9]; randomized Phase III trial, gemcitabine versus 5-FU", "result": 5.65, "unit": "months"},
      {"measurement": "PD-1 and CD4 mRNA level", "setting": "[10]", "result": "not significantly higher"}
    ]}
  ]
}
